Values quoted from earlier work, collected in patent publication US20210360928A1, “ANTIMICROBIAL/ANTIVIRAL NONWOVEN AND APPLICATIONS OF THE SAME” (priority 2020, published 2021).

For `[Cl][Ag]` [silver chloride], the solubility in water is given as “unusually insoluble in water”.
